In patent publication US12055536B2, “Device for detection of cellular stress” (Trustees of Boston University, priority 2021, dated 2024):

Key:
OVCAR5 xenografts = OVCAR5 xenografts in mice treated with carboplatin; type: in vivo; details: 25 mg/kg carboplatin weekly i.p. for three cycles versus saline
Description: Xenografts were obtained through intraperitoneally implantation of 2 million OVCAR5 cells in female (6-8 weeks old) athymic nude mice (Foxn1^nu, Envigo). Two weeks after inoculation, tumor harboring mice were treated with PBS (sensitive group, n=3) or 25 mg/kg carboplatin (resistant group, n=3) via weekly i.p. injection for three cycles. Tumors were collected and weighted one week after the last cycle and frozen. For SRS imaging, tumors were sectioned at […] thickness slices by cryostat. To isolate tumor cells from tissue, PBS and carboplatin treated xenografts were mechanically and enzymatically dissociated in Dulbecco's modified Eagle's medium/F12 (Thermo Fisher Scientific) containing collagenase (300 IU/ml, Sigma-Aldrich) and hyaluronidase (300 IU/ml, Sigma-Aldrich) for 2-4 hours at 37° C. […] To determine whether lipid accumulation also occurs in vivo in platinum-treated tumors, SRS imaging of lipids was performed in OVCAR5 xenografts collected from mice treated weekly with saline or carboplatin for three weeks. Tumor growth was suppressed by carboplatin treatment (FIG. 1N). […] (FIG. 1O). The results shown in FIGS. 1P-1Q indicate heterogenous lipid accumulation and higher lipid amount in the carboplatin-treated tumors compared with the platinum-sensitive tumors. Collectively, higher level of lipid content was a metabolic feature of cisplatin-resistant ovarian cancer cells.

[1] = system: platinum resistant PDX model; assay: Platinum resistant patient-derived xenograft (PDX) model; type: in vivo; details: day 14 to 37
Description: The platinum resistant PDX model was developed as previously described. After passage through a donor animal, fresh tumor (equal size) was implanted subcutaneously (SC) in 20 female 7-8-week-old NSG mice (Jackson Labs, Cat #: JAX:00555). Tumor sizes were measured using calipers twice per week and tumor volumes were calculated according to the formula length×width^2/2. When the tumor volume reached 100 mm^3, the animals were randomized into four groups: vehicle, carboplatin alone (10 mg/kg weekly intraperitoneal (i.p.) injection), etomoxir alone (40 mg/kg daily i.p. injection), and combination of carboplatin (10 mg/kg weekly i.p. injection) and etomoxir (40 mg/kg daily i.p. injection). Body weights and habitus were monitored twice per week and mice were sacrificed when the largest tumor exceeded 1500 mm^3 or if human endpoints were reached earlier.
A patient-derived xenograft (PDX) model rendered platinum resistant through repeated exposure to carboplatin in vivo as described previously was used to test whether interruption of fatty acid oxidation could sensitize ovarian tumors to platinum in vivo.

SKOV3-cisR cells [2] = assay: Large-area hyperspectral SRS imaging of lipids, single cell analysis; type: cell-based, human; details: 10 μM C-75
Description: Hyperspectral SRS imaging was performed on a lab-built system following previously published method [8]. The laser source was a femtosecond laser (InSight™ DeepSee™, Spectra-Physics™, Santa Clara, CA, USA) operating at 80 MHz with two synchronized output beams, a tunable pump beam ranging from 680 nm to 1300 nm, and a Stokes beam fixed at 1040 nm. For imaging at the C-H vibration region (2800˜3050 cm^−1), pump beam was tuned to 798 nm. The Stokes beam was modulated at 2.3 MHz by an acousto-optic modulator (1205-C, Isomet®). After combination, both beams were chirped by two 12.7 cm long SF57 glass rods and then sent to a laser-scanning microscope. The power of pump and Stokes beam before microscope was controlled to be 20 mW and 200 mW, respectively. […]
Lipid analysis in single cells were performed through the software CellProfiler™ [68]. […] Morphological information of each cell and lipid analysis, including LD number and intensity in single cells were measured and reported in the output results. […] For each sample, a few hundreds to a thousand of cells were analyzed.
An SRS spectrum was extracted at each pixel from the image stack. […] Finally, quantitative characterization of lipids in terms of integrated intensity, mean intensity, area, and lipid droplet size in each individual cell was performed.

OVCAR5 cells [3] = assay: Cell viability assay (dose-response); type: cell-based, human; details: OVCAR5 cells (sensitive)
Description: (§1) Cell viability was measured by MTS assay (Abcam, #ab197010) or by CellTiter-Glo™ assay (Promega, #G7570). Cells were seeded at 96-well plates at densities of 2000˜5000 cells per well overnight. Treatment was added to the cells at indicated concentrations for 72 h. Cell viability was measured by incubating with MTS reagent for 4 h and reading absorbance at 490 nm or incubating with CellTier-Glo™ reagent for 10 min and reading luminescence by a plate reader. Six replicates were used for each group.
(§2) In addition, isogenic PEO1/PEO4 cell lines derived from the same patient were studied, at the time of a platinum sensitive (PEO1) and platinum resistant-recurrence (PEO4).
(§3) Having shown decreased glucose-derived anabolism and increased fatty acid uptake in cisplatin-resistant ovarian cancer cells, whether this metabolic feature can be used for differentiation of cisplatin-resistant from cisplatin-sensitive cancer cells was explored. […] In Table 2 below, quantitation of glucose-d7 (G-d7), PA-d31, and OA-d34 are shown as area fraction of C-D signal out of total cellular area, in mean values.

OVCAR5-cisR cells [4] = assay: Cell viability assay (dose-response); type: cell-based, human
Description: as §1, §2, §3

PEO1 cells = assay: Cell viability assay (dose-response); type: cell-based, human; details: PEO1 cells (sensitive)
Description: as §1, §2, §3

PEO4 cells = assay: Cell viability assay (dose-response); type: cell-based, human
Description: as §1, §2, §3

SKOV3 cells = assay: Cell viability assay (dose-response); type: cell-based, human; details: SKOV3 cells (sensitive)
Description: as §1, §2, §3

SKOV3-cisR cells [5] = assay: Cell viability assay (dose-response); type: cell-based, human; details: SKOV3-cisR cells
Description: as §1, §2, §3

OVCAR5-cisR cells [6] = assay: Isotope labeling and SRS imaging; type: cell-based, human; details: BMS 10 μM for 24 hours, 100 μM PA-d31 for 6 hours
Description: (§4) For labeling with glucose-d7, media was replaced with glucose-free DMEM medium (Thermo Fisher Scientific, #11966025)+10% FBS+P/S supplemented with 25 mM glucose-d7 after seeding the cells in 35 mm glass-bottom dishes overnight. For labeling with FA or analogs, including PA-d31, OA-d34, and ODYA, FA or analogs were added to the culture media at final concentration of 100 μM and cells were treated for 6 h. For quantitative SRS imaging, cells on glass-bottom dishes were fixed with 10% neutral buffered formalin for 30 min and washed with PBS for 3 times. Hyperspectral SRS imaging was performed to the cells at Raman spectral region from 2100 to 2300 cm^−1.
(§5) To identify the source of increased lipid content in cisplatin-resistant ovarian cancer cells, the contribution of de novo lipogenesis and of fatty acid uptake were examined, respectively. Using a stable isotope probing method, the level of lipogenesis was examined by feeding the cells with deuterium labeled glucose-d7. […] Quantitative analysis confirmed significant reduction of both signal intensity and relative area fraction in PEO4 cells when compared to PEO1 cells (FIG. 2B), indicating a decrease in glucose derived anabolism and de novo lipogenesis in cisplatin-resistant cells. […]

SKOV3-cisR cells [7] = assay: Isotope labeling and SRS imaging; type: cell-based, human; details: BMS 5 μM, 10 μM or 20 μM for 24 hours, 100 μM PA-d31 for 6 hours
Description: as §4, §5

OVCAR5-cisR cells [8] = assay: ATP/ADP assay; type: cell-based, human; details: 3.3 μM cisplatin with 100 μM palmitic acid for 6 hours
Description: NADP/NADPH and ADP/ATP were measured by using commercial kits (Abcam, #ab65349 and #ab65313). For NADPH measurement, cells (˜1×10^6 cells) were pelleted and extracted using NADPH/NADP extraction buffer. Total NADP/NADPH was directly measured using the assay kit and NADPH alone was measured after decomposing NADP by heating at 60° C. for 30 min. Absorption at 450 nm was measured by plate reader (Molecular Devices, SpectraMax i3x). For ATP measurement, cells were seeded in 96-well plates. ATP was measured directly and total ATP+ADP was measured by converting ADP to ATP. The luminescent signal was measured by plate reader. At least three replicates were included for each measurement.

COV362-cisR cells = assay: Cell viability assay (dose-response); type: cell-based, human
Description: as §1, §2, §3

OVCAR5 cells [9] = assay: Fatty acid oxidation assay (extracellular oxygen consumption kit); type: cell-based, human; details: 40 μM etomoxir over 3 hours
Description: (§6) Fatty acid oxidation (FAO) was measured using a commercial kit (Abcam, #ab217602) following the provided protocol. Briefly, cells were seeded in 96-well plate with 150 k cells/well. After incubation overnight, medium was replaced. 10 μL of Extracellular O2 consumption reagent, and 2 drops of high-sensitivity mineral oil (pre-heated at 37° C.) were added to each well. Fluorescence was measured in plate reader at 2 min intervals for 180 min at excitation/emission=380/650 nm. Etomoxir was added at final concentration of 40 μM to block FAO. Oxygen consumption rate (OCR) is presented as AFluorescence intensity/Min/cell and FAO rate is calculated as OCRFAO=OCRtotal−OCREtomoxir. At least three replicates were included for each measurement.

OVCAR5-cisR cells [10] = assay: as above; type: cell-based, human; details: 40 μM etomoxir over 3 hours
Description: as §6

OVCAR5 cells [11] = assay: OCR and ECAR by Seahorse analysis; type: cell-based, human; details: etomoxir treatment
Description: (§7) Cell lines were seeded in a Seahorse® XF96 Cell Culture Microplate (Agilent) at density of 6×10^4 (OVCAR5 pair) or 4×10^4 (PEO pair) per well. After incubation at 37° C. overnight for cell attachment, OCR, and extracellular acidification rate (ECAR) were measured through Seahorse® XFe96 Analyzer (Agilent). Measurement time was 30 seconds following 3 minutes mixture and 30 seconds waiting time. First three cycles were used for basal respiration measurement. […] Basal respiration, ATP production and maximal respiration reduction were calculated following the manufacturer's instructions.

OVCAR5-cisR cells [12] = assay: OCR and ECAR by Seahorse analysis; type: cell-based, human; details: etomoxir treatment
Description: as §7

N.N.O=C([O-])C1(C(=O)[O-])CCC1.[Pt+2] [carboplatin]
Tumor growth (weights of xenografts) (OVCAR5 xenografts): suppressed | tumor growth (total tumor volume) ([1]; carboplatin alone, 10 mg/kg weekly i.p.): slight reduction of tumor growth

C=C1C(=O)OC(CCCCCCCC)C1C(=O)O (centres unmarked) [C-75]
increased lipid content in SKOV3-cisR compared with SKOV3 (SKOV3-cisR cells [2]): did not affect the increased lipid content

CCc1c(-c2ccccc2)c(-c2ccccc2)nn1-c1ccccc1-c1cccc(OCC(=O)O)c1 [BMS309403]
dose-response to cisplatin with supplemental BMS treatment (OVCAR5 cells [3]): less obvious | dose-response to cisplatin with supplemental BMS treatment (OVCAR5-cisR cells [4]; OVCAR5-cisR cells): reduced resistance to cisplatin | dose-response to cisplatin with supplemental BMS treatment (PEO1 cells): less obvious | dose-response to cisplatin with supplemental BMS treatment (PEO4 cells; PEO4 cells): reduced resistance to cisplatin | dose-response to cisplatin with supplemental BMS treatment (SKOV3 cells): less obvious | dose-response to cisplatin with supplemental BMS treatment (SKOV3-cisR cells [5]): reduced resistance to cisplatin | PA-d31 uptake (C-D SRS signal intensity) (OVCAR5-cisR cells [6]): significantly reduced | fatty acid uptake (C-D SRS signal intensity) (SKOV3-cisR cells [7]): Suppression of fatty acid uptake

CCCCCCCCCCCCCCCC(=O)O [palmitic acid]
ATP level (ATP/ADP ratio) on supplementation (OVCAR5-cisR cells [8]): significantly increased

CCOC(=O)[C@@]1(CCCCCCOc2ccc(Cl)cc2)CO1 [etomoxir]
dose-response to cisplatin curves with etomoxir treatment (COV362-cisR cells; COV362-cisR cells, etomoxir 40 μM): significantly left shifted | dose-response to etomoxir, compared to parental cell line (COV362-cisR cells; COV362-cisR versus COV362): Higher sensitivity | dose-response to cisplatin curves with etomoxir treatment (OVCAR5-cisR cells [4]; OVCAR5-cisR cells, etomoxir 40 μM): significantly left shifted | dose-response to etomoxir, compared to parental cell line (OVCAR5-cisR cells [4]; OVCAR5-cisR versus OVCAR5): Higher sensitivity | dose-response to cisplatin curves with etomoxir treatment (PEO4 cells; PEO4 cells, etomoxir 40 μM): significantly left shifted | dose-response to etomoxir, compared to parental cell line (PEO4 cells; PEO4 versus PEO1): Higher sensitivity | oxygen consumption (OVCAR5 cells [9]): did not induce an obvious change | oxygen consumption (OVCAR5-cisR cells [10]): significantly reduced | OCR (Seahorse FAO assay) (OVCAR5 cells [11]): less sensitive | OCR (Seahorse FAO assay) (OVCAR5-cisR cells [12]): obvious reduction of OCR | tumor growth (total tumor volume) ([1]; etomoxir alone, 40 mg/kg daily i.p.): slight reduction of tumor growth
